The values that follow come from US12398196B2, “Fused polypeptide with multifunctional activities and use thereof” (NANJING ANJI BIOLOGICAL TECHNOLOGY CO., LTD., priority 2019, dated 2025).

In test [1] the test system is SD rats with renal fibrosis. Briefly: Renal fibrosis model (ureter ligation). It is filed as in vivo. Particulars: 6 mg/kg s.c. twice a day, 14 days. The protocol:
Clean grade male SD rats, purchased from Nanjing Qinglong Mountain Animal Farm, and weighed 180-200 g at the time of purchase, 190-210 g at the beginning of modeling, and 180-200 g at the beginning of administration.
A renal fibrosis animal model was established. SD rats were anesthetized with 4% chloral hydrate, injected with 1 mL/100 g intraperitoneally, fixed to an operation board, and sterilized in an operation area for later use. […] Muscular layers and abdominal walls were sewed layer by layer, the suture was disinfected with alcohol. After SD rats woke up, the rats were put into a cage for feeding. In the blank group, ureter was not ligated, and other steps were the same.
Then, the animals fell into a blank group, a model group, and polypeptide administration groups, with 10 animals in each group, and the administration was started on the second day after the operation, and was performed for 14 days. After administration for 14 days, blood was taken and supernatant was taken to detect the content of TGF-β1 in serum.

The next test relates to Mycoplasma pneumoniae. Nature of the test: Mouse pneumonia model, mycoplasma pneumonia. Format: in vivo, BALB/C mice. Also on record: unit not given here. The note with it: nasal drip, average values + standard deviation. An excerpt:
(§1) A mouse pneumonia model was successfully established by using a nasal drip method. BALB/C mice with a body weight of 18-24 g were selected, and then anesthetized with ether on day 0, day 1 and day 2, respectively, prepared Streptococcus pneumoniae bacteria solution, adenovirus concentrated solution, Mycoplasma pneumoniae, Chlamydia pneumoniae, protozoa and pneumonia fungi were slowly dropped into the nasal cavity of the mice, so that the bacteria solutions entered the trachea and bronchi, and the bacteria solutions were prevented from flowing into the esophagus during the operation to avoid inactivation of the bacteria solutions, so that the mouse pneumonia model was established. After the model was successfully established, the polypeptide according to the present disclosure was administered, as shown in FIG. 9 and Table 7. […] The experimental results are represented on the basis of average values+standard deviation.

A further test concerns Chlamydia pneumoniae. Nature of the test: Mouse pneumonia model, chlamydia pneumonia. Format: in vivo, BALB/C mice. Also on record: unit not given here. The note with it: nasal drip, average values + standard deviation.
Excerpt: as §1

Test [2] has as its system multiple pulmonary infections. Briefly: Mouse pneumonia model, pneumonia caused by pulmonary infections. Format: in vivo, BALB/C mice. Also on record: unit not given here. The note with it: nasal drip, average values + standard deviation.
Excerpt: as §1

In test [3] the test system is SD rats with CCl4-induced hepatic fibrosis. Briefly: CCl4-induced hepatic fibrosis animal model. It is filed as in vivo. Particulars: CCl4 8 weeks, polypeptides 6 mg/kg s.c. once a day, colchicine intragastric 5 times/week. As to the method:
Source and strain: SPF level, SD rats, provided by Shanghai Xipuer-Bikai laboratory Animal Co., Ltd. (laboratory animal license: SCXK (hu) 2013-0016)
There were 10 rats in each group. Modeling was performed on the rats. Each group other than the blank group was injected with 40% CCl4 intraperitoneally twice a week, the first injection was performed at 3 mL/kg, and then administration was performed at 2 mL/kg. Administration was performed for 8 weeks, and a total of 16 injections were provided to induce hepatic fibrosis. After the intraperitoneal injection of CCl4 for the fourth time, polypeptide therapy was started on the next day, and administration was performed by subcutaneous injection once a day until the end of induction. After the intraperitoneal injection of CCl4 for the fourth time, colchicine was administrated on the next day at 200 μg/kg, 5 times a week, and intragastric administration therapy was implemented. After induction for 8 weeks, the administration was stopped. On the second day, the SD rats were dissected, blood was taken, and the liver tissue was taken and stored in a refrigerator at −80° C. for later use. The expressions of AST and ALT in serum and HYP in the rat liver tissue were detected.

For a further test, the system named is protozoa. Briefly: Mouse pneumonia model, protozoal pneumonia. Format: in vivo, BALB/C mice. The note with it: nasal drip, average values + standard deviation. Also on record: unit not given here.
Excerpt: as §1

Another test relates to mice with skin fibrosis. Nature of the test: Bleomycin-induced skin fibrosis model. Format: in vivo, C57/BL black mice. The note with it: C57/BL mice, bleomycin s.c. 28 days; 10 mg/kg s.c. twice a day. As to the method:
Male C57/BL black mice aged 6-8 weeks, purchased from Nanjing Qinglong Mountain Animal Farm. Bleomycin (10 μg/mL) was injected subcutaneously every day for 28 days to form skin fibrosis. During the modeling period, the administration groups were given polypeptide drugs twice a day for treatment. After modeling, the mice were killed on the next day, and the skin tissue of the mouse back was taken to detect the content of HYP in the skin tissue. [table]

A further test concerns pneumonia fungi. Nature of the test: Mouse pneumonia model, fungal pneumonia. It is filed as in vivo, BALB/C mice. Also on record: unit not given here. Particulars: nasal drip, average values + standard deviation.
Excerpt: as §1

Another test concerns Streptococcus pneumoniae. Briefly: Mouse pneumonia model, bacterial pneumonia. Particulars: nasal drip, average values + standard deviation. Also on record: unit not given here. It is filed as in vivo, BALB/C mice.
Excerpt: as §1

Test [4] concerns mice with myocardial fibrosis. Briefly: Isoprenaline-induced myocardial fibrosis model. It is filed as in vivo. Particulars: BALB/c mice, isoprenaline 5 mg/kg 7 days; 12 mg/kg s.c. twice a day. As to the method:
1. Experimental Mice: 10-Week-Old Male BALB/c Mice (with an Average Weight of 20 g).
In the model group, the experimental mice were injected with isoprenaline (ISO) (5 mg/kg) subcutaneously on the back of the mice every day for 7 consecutive days, and the mice were injected with normal saline subcutaneously (200 μL/mouse) every day. In the blank group, normal saline was injected subcutaneously (200 μL/mouse) every day. While a model was made, polypeptide drugs were administrated for treatment by subcutaneous injection. After the 8th day, blood was taken and was centrifuged, the supernatant was taken, and the content of TGF-β1 in serum was detected.

In a further test the test system is adenovirus. Briefly: Mouse pneumonia model, viral pneumonia. It is filed as in vivo, BALB/C mice. Also on record: unit not given here. Particulars: nasal drip, average values + standard deviation.
Excerpt: as §1

The test system of test [5] is SD rats with bleomycin-induced pulmonary fibrosis. Briefly: Bleomycin-induced pulmonary fibrosis animal model. Format: in vivo. The note with it: for Survival rate (%): bleomycin 5 mg/kg intratracheal, polypeptides 10 mg/kg subcutaneous twice a day for 14 days, positive drug Nintedanib intragastric once a day, model group 57.1%; for content of HYP in lung tissues, difference from model group / content of TGF-β1 in serum, difference from model group: polypeptides 10 mg/kg s.c. twice a day, Nintedanib 25 mg/kg intragastric once a day, 14 days. As to the method: Source and strain: clean SD rats, provided by Comparative Medicine Center of Yangzhou University (laboratory animal production license: SCXK (Su) 2012-0004); Certification of Using of Laboratory Animal: SYXK (Su) 2012-0035).
SD rats were anesthetized by intraperitoneal injection of 1 mL/100 g 4% chloral hydrate. After anesthesia, the rats were fixed and their necks were disinfected by using cotton with 75% alcohol. The skin of the rat neck was longitudinally cut with scissors, and the fascia and muscle were longitudinally bluntly torn with tweezers to expose the trachea. A syringe was inserted into the trachea to inject 5 mg/kg bleomycin, while a blank group was injected with an equal amount of normal saline. Then a rat plate was quickly erected and rotated, the rats' breathing was observed, the neck wound was sterilized after rotation and was sewn, and an amoxicillin anti-inflammatory drug was sprinkled on the suture. After the operation, the rats were put back into a dry and clean cage for resting, waiting was performed for awakening. The rats were awakened after about 1-2 hours, and then fed normally. On the 7th day after modeling, modeling group animals randomly fell into a model group, a Nintedanib positive drug group, polypeptide I, II, III and IV dosage groups, and a normal control group, and the groups were administered separately for an administration cycle of 14 days. Living situations of rats were observed every day and their weights were weighed. After administration for 14 days, the eyeballs were removed and blood was taken, the rats were dissected, and lungs were taken. The content of TGF-β1 in serum and the content of HYP in lung tissues were detected.

Setting [6] is: bleomycin-induced pulmonary fibrosis.

Ends that are not written are not given here.

As for “PRCWCGEGGGGIVRRADRAAVPGGGGRGD (cysteine pairing not given here) [Polypeptide III]”, the “content of TGF-β1 in serum, difference from model group” value (“content of TGF-β1 in serum, difference” below) in test [1] was “highly significantly different from the model group (** P<0.01)”. Also, the “Inhibitory effect on pulmonary infections: Mycoplasma pneumonia” value with Mycoplasma pneumoniae was found to be 43.93 ± 5.53. For the same sequence, the “Inhibitory effect on pulmonary infections: Chlamydia pneumonia” value in the test with Chlamydia pneumoniae is 56.40 ± 5.49. The “Inhibitory effect on pulmonary infections: Pneumonia caused by pulmonary infections” value in test [2] is reported as 56.81 ± 3.13. In [3], the “content of AST in serum, difference from model group” value is “highly significantly different from the model group (*** P<0.001)” and the “content of HYP in the liver tissue, difference from model group” value is reported as “highly significantly different from the model group (*** P<0.001)”. Besides, in the test with protozoa, the “Inhibitory effect on pulmonary infections: Protozoal pneumonia” value is given as 64.29 ± 8.70. Also, the “content of HYP in the skin tissue, difference from model group” value with mice with skin fibrosis is “highly significantly different from the model group (*P<0.05)”. The “Inhibitory effect on pulmonary infections: Fungal pneumonia” value in the test with pneumonia fungi is given as 62.88 ± 5.94. Further, the “Inhibitory effect on pulmonary infections: Bacterial pneumonia” value in the test on Streptococcus pneumoniae is 47.29 ± 8.76. In [4], the “content of TGF-β1 in serum, difference” value was “highly significantly different from the model group (** P<0.01)”. Also, the “Inhibitory effect on pulmonary infections: Viral pneumonia” value with adenovirus was 67.49 ± 9.94. Moreover, the “Survival rate (%)” value in test [5] stood at 85.7%. Moreover, in test [5] (setting [6]), the “content of HYP in lung tissues, difference from model group” value was “significantly different from the model group (*P<0.05)” and the “content of TGF-β1 in serum, difference” value was “highly significantly different from the model group (*** P<0.001)”.

On to “PRCWRGEGGGGIAVVRRADRAPGGGGRGD [Polypeptide I]”, for which, in [1], the “content of TGF-β1 in serum, difference” value was “highly significantly different from the model group (*** P<0.001)”. Also, the “Inhibitory effect on pulmonary infections: Mycoplasma pneumonia” value with Mycoplasma pneumoniae is on record as 36.48 ± 5.55. Also, in the test with Chlamydia pneumoniae, the “Inhibitory effect on pulmonary infections: Chlamydia pneumonia” value was found to be 37.18 ± 7.46. In [2], the “Inhibitory effect on pulmonary infections: Pneumonia caused by pulmonary infections” value came out at 47.52 ± 7.88. Also, in [3], the “content of AST in serum, difference from model group” value is reported as “highly significantly different from the model group (*** P<0.001)” and the “content of HYP in the liver tissue, difference from model group” value is given as “highly significantly different from the model group (*** P<0.001)”. Further, the “Inhibitory effect on pulmonary infections: Protozoal pneumonia” value in the test on protozoa worked out at 48.16 ± 5.46. Also, the “content of HYP in the skin tissue, difference from model group” value in the test on mice with skin fibrosis was “highly significantly different from the model group (** P<0.01)”. Moreover, in the test on pneumonia fungi, the “Inhibitory effect on pulmonary infections: Fungal pneumonia” value came out at 47.54 ± 9.68. For the same sequence, the “Inhibitory effect on pulmonary infections: Bacterial pneumonia” value in the test with Streptococcus pneumoniae worked out at 34.83 ± 7.95. In addition, in test [4], the “content of TGF-β1 in serum, difference” value was “highly significantly different from the model group (** P<0.01)”. Further, the “Inhibitory effect on pulmonary infections: Viral pneumonia” value in the test with adenovirus is recorded as 50.00 ± 6.84. In test [5], the “Survival rate (%)” value worked out at 85.7%. For the same sequence, the “reduction of HYP in lung tissues compared with the positive drug” value in test [5] (bleomycin-induced pulmonary fibrosis, comparison with Nintedanib) was “better effects than the positive drug”. In addition, in test [5] (setting [6]), the “content of HYP in lung tissues, difference from model group” value is given as “highly significantly different from the model group (*** P<0.001)” and the “content of TGF-β1 in serum, difference” value is given as “highly significantly different from the model group (*** P<0.001)”.
